According to patent publication US12134620B2 (ARAXES PHARMA LLC, priority 2018, dated 2024):

Molecular target: T1, KRAS G12C 1-169, his-tagged protein, GDP-loaded (Homo sapiens, UniProt P01116, G12C)
T1 construct: KRAS G12C 1-169, his-tagged protein, GDP-loaded; His tag
Assay: Biochemical assay: covalent modification of KRAS G12C, analysed by mass spectrometry (RapidFire/TOF or Q-Exactive)
Format: binding
Conditions: Modification activity, modification percentage from MS peak intensities
Experimental: Test compounds are prepared as 10 mM stock solutions in DMSO (Fisher cat. #BP-231-100). KRAS G12C 1-169, his-tagged protein, GDP-loaded is diluted to 2 μM or 0.5 μM in buffer (20 mM Hepes, 150 mM NaCl, 1 mM MgCl2). Compounds are tested for activity as follows:
Compounds are diluted to 50× final test concentration in DMSO in 96-well storage plates. Compound stock solutions are vortexed before use and observed carefully for any sign of precipitation. Dilutions are as follow: • For 32 μM final compound concentration, compounds are diluted to 1600 μM (3 μL 10 mM compound stock+15.75 μL DMSO and mixed well by pipetting. • For 8 μM final compound concentration, compounds are diluted to 400 μM (2 μL 10 mM compound stock+48 μL DMSO) and mixed well by pipetting. 49 μL of the stock protein solution is added to each well of a 96-well PCR plate (Fisher cat #1423027). 1 μl of the diluted 50× compounds are added to appropriate wells in the PCR plate using 12-channel pipettor. Reactions are mixed carefully and thoroughly by pipetting up/down with a 200 μL multi-channel pipettor. The plate is sealed well with aluminum plate seal, and protein and compound are allowed to react for a desired amount of time. 5 μL of 2% formic acid (Fisher cat #A117) in de-ionized H2O is then added to each well followed by mixing with a pipette to quench the reaction. The plate is then resealed with aluminum seal and stored frozen on dry ice until analyzed as described below.
The above described assays are analyzed by mass spectrometry according to one of the following two procedures:
The MS instrument is set to positive polarity, 2 GHz resolution, and low mass (1700) mode and allowed to equilibrate for 30 minutes. The instrument is then calibrated, switched to acquisition mode and the appropriate method loaded.
After another 30 minute equilibration time, a blank batch (i.e., buffer) is run to ensure equipment is operating properly. The samples are thawed at 37° C. for 10 minutes, briefly centrifuged, and transfer to the bench top. Wells A1 and H12 are spiked with 1 μL 500 μM internal standard peptide, and the plates centrifuged at 2000×g for 5 minutes. The method is then run and masses of each individual well recorded.
The masses (for which integration data is desired) for each well are pasted into the platemap and exported from the analysis. Masses for the internal standards are exported as well. The data at 50 ppm is extracted for the +19 charge state, and identity of well A1 is assigned using the internal standard spike and integrated. Peak data is exported as a TOF list and the above steps are repeated individually, for the +20, +21, +22, +23, +24, and +25 charge states.
The masses and peak intensities of KRAS G12C protein species are measured using a Dionex RSLCnano system (Thermo Scientific) connected to a Q Exactive Plus mass spectrometer (Thermo Scientific).
20 μL of sample is each loaded onto a Aeris™ 3.6 μm WIDEPORE C4 200 Å, LC Column 50×2.1 mm column maintained at 40° C. at a flow rate of 600 μL/min with 80% Solvent A (0.1% formic acid in H2O) and 20% Solvent B (0.1% formic acid in acetonitrile). The liquid chromatography conditions are 20% solvent B for 1 minute, 20% to 60% solvent B for 1.5 minutes, 60% to 90% solvent for 0.5 minute, 90% solvent B for 0.2 minute, 90% to 20% solvent B for 0.2 minute, and then equilibrated for 1.6 minute before the following sample injection. The flow rate is maintained at 600 μL/min throughout the sample analysis.
The mass spectrometer is operated in profile mode at a resolution of 17500, 5 microscans, using 50 msec max injection time and an AGC target of 1×10^6, and a full mass range from 800-1850 m/z is recorded. The intact protein mode is applied for optimal ion transfer and maximum sensitivity. The ionization method is electrospray ionization, which used a spray voltage of 4 kV, sheath gas flow set to 50 AU, auxiliary gas flow set to 10 AU and sweep gas flow set to 1 AU. […]

SMILES | Binding %
C=CC(=O)N1CC2(CCN(c3nc(OC[C@@H]4CCCN4C)nc(N4CCCC(O)C4)c3C#N)C2)C1 (stereo partly drawn) [Compound I-13, 4-(2-acryloyl-2,6-diazaspiro[3.4]octan-6-yl)-6-(3-hydroxypiperidin-1-yl)-2-(((S)-1-methylpyrrolidin-2-yl)methoxy)pyrimidine-5-carbonitrile] | + (+ indicates binding activity greater than 0% and up to 50%)
C=CC(=O)N1CC2(CCN(c3nc(OCCc4ncccn4)nc(-c4c(C)ccc5[nH]ncc45)c3C#N)C2)C1 [Compound I-14, 4-(2-acryloyl-2,6-diazaspiro[3.4]octan-6-yl)-6-(5-methyl-1H-indazol-4-yl)-2-(2-(pyrimidin-2-yl)ethoxy)pyrimidine-5-carbonitrile] | ++ (++ indicates binding activity from 50 to 85%)
C=CC(=O)N1CC2(CCN(c3nc(OCc4ccccn4)nc(-c4c(C)ccc5[nH]ncc45)c3C#N)C2)C1 [Compound I-15, 4-(2-acryloyl-2,6-diazaspiro[3.4]octan-6-yl)-6-(5-methyl-1H-indazol-4-yl)-2-(pyridin-2-ylmethoxy)pyrimidine-5-carbonitrile] | +++ (+++ indicates binding activity greater than 85%)
C=CC(=O)N1CC2(CCN(c3nc(OC[C@@H]4CCCN4C)nc(-c4ccccc4C(F)(F)F)c3C#N)C2)C1 [Compound I-16, (S)-4-(2-acryloyl-2,6-diazaspiro[3.4]octan-6-yl)-2-((1-methylpyrrolidin-2-yl)methoxy)-6-(2-(trifluoromethyl)phe-nyl)pyrimidine-5-carbonitrile] | + (+ indicates binding activity greater than 0% and up to 50%)
C=CC(=O)N1CC2(CCN(c3nc(OC[C@@H]4CCCN4C)nc(-c4cccc5c4OC(F)(F)O5)c3C#N)C2)C1 [Compound I-17, (S)-4-(2-acryloyl-2,6-diazaspiro[3.4]octan-6-yl)-6-(2,2-difluorobenzo[d][1,3]dioxol-4-yl)-2-((1-methylpyrrolidin-2-yl)methoxy)pyrimidine-5-carbonitrile] | + (+ indicates binding activity greater than 0% and up to 50%)
C=CC(=O)N1CC2(CCN(c3nc(OC[C@@H]4CCCN4C)nc(NCc4cccnc4)c3C#N)C2)C1 [Compound I-18, (S)-4-(2-acryloyl-2,6-diazaspiro[3.4]octan-6-yl)-2-((1-methylpyrrolidin-2-yl)methoxy)-6-((pyridin-3-ylmethyl)amino)pyri-midine-5-carbonitrile] | + (+ indicates binding activity greater than 0% and up to 50%)
C=CC(=O)N1CC2(CCN(c3nc(Oc4cnn(C)c4)nc(-c4c(C)ccc5[nH]ncc45)c3C#N)C2)C1 [Compound I-19, 4-(2-acryloyl-2,6-diazaspiro[3.4]octan-6-yl)-6-(5-methyl-1H-indazol-4-yl)-2-((1-methyl-1H-pyrazol-4-yl)oxy)pyrimidine-5-carbonitrile] | ++ (++ indicates binding activity from 50 to 85%)
C=CC(=O)N1CC2(CCN(c3nc(OCCN4CCCC4=O)nc(-c4c(C)ccc5[nH]ncc45)c3C#N)C2)C1 [Compound I-20, 4-(2-acryloyl-2,6-diazaspiro[3.4]octan-6-yl)-6-(5-methyl-1H-indazol-4-yl)-2-(2-(2-oxopyrrolidin-1-yl)ethoxy)pyrimidine-5-carbonitrile] | ++ (++ indicates binding activity from 50 to 85%)
C=CC(=O)N1CC2(CCN(c3nc(OCCN4CCC(F)(F)C4)nc(-c4c(C)ccc5[nH]ncc45)c3C#N)C2)C1 [Compound I-21, 4-(2-acryloyl-2,6-diazaspiro[3.4]octan-6-yl)-2-(2-(3,3-difluoropyrrolidin-1-yl)ethoxy)-6-(5-methyl-1H-indazol-4-yl)pyrimidine-5-carbonitrile] | ++ (++ indicates binding activity from 50 to 85%)
C=CC(=O)N1CC2(CCN(c3nc(OC[C@@H]4CCCN4C)nc(-c4cc(O)ccc4C)c3C#N)C2)C1 [Compound I-22, (S)-4-(2-acryloyl-2,6-diazaspiro[3.4]octan-6-yl)-6-(5-hydroxy-2-methylphenyl)-2-((1-methylpyrrolidin-2-yl)methoxy)pyrimidine-5-carbonitrile] | + (+ indicates binding activity greater than 0% and up to 50%)
C=CC(=O)N1CC2(CCN(c3nc(N4CCCC4=O)nc(-c4c(C)ccc5[nH]ncc45)c3C#N)C2)C1 [Compound I-23, 4-(2-acryloyl-2,6-diazaspiro[3.4]octan-6-yl)-6-(5-methyl-1H-indazol-4-yl)-2-(2-oxopyrrolidin-1-yl)pyrimidine-5-carbonitrile] | ++ (++ indicates binding activity from 50 to 85%)
C=CC(=O)N1CC2(CCN(c3nc(N4Cc5ccccc5C4)nc(-c4c(C)ccc5[nH]ncc45)c3C#N)C2)C1 [Compound I-24, 4-(2-acryloyl-2,6-diazaspiro[3.4]octan-6-yl)-2-(isoindolin-2-yl)-6-(5-methyl-1H-indazol-4-yl)pyrimidine-5-carbonitrile] | ++ (++ indicates binding activity from 50 to 85%)
C=CC(=O)N1CC2(CCN(c3nc(OC4CCOCC4)nc(-c4c(C)ccc5[nH]ncc45)c3C#N)C2)C1 [Compound I-25, 4-(2-acryloyl-2,6-diazaspiro[3.4]octan-6-yl)-6-(5-methyl-1H-indazol-4-yl)-2-((tetrahydro-2H-pyran-4-yl)oxy)pyrimidine-5-carbonitrile] | + (+ indicates binding activity greater than 0% and up to 50%)
C=CC(=O)N1CC2(CCN(c3nc(OC[C@@H]4CCCN4C)nc(-c4cccc5c4OCCO5)c3C#N)C2)C1 [Compound I-26, (S)-4-(2-acryloyl-2,6-diazaspiro[3.4]octan-6-yl)-6-(2,3-dihydrobenzo[b][1,4]dioxin-5-yl)-2-((1-methylpyrrolidin-2-yl)methoxy)pyrimidine-5-carbonitrile] | + (+ indicates binding activity greater than 0% and up to 50%)
C=CC(=O)N1CC2(CCN(c3nc(N4CCC(F)(F)C4)nc(-c4c(C)ccc5[nH]ncc45)c3C#N)C2)C1 [Compound I-27, 4-(2-acryloyl-2,6-diazaspiro[3.4]octan-6-yl)-2-(3,3-difluoropyrrolidin-1-yl)-6-(5-methyl-1H-indazol-4-yl)pyrimidine-5-carbonitrile] | +++ (+++ indicates binding activity greater than 85%)
C=CC(=O)N1CC2(CCN(c3nc(N4CCN(C)C(=O)C4)nc(-c4c(C)ccc5[nH]ncc45)c3C#N)C2)C1 [Compound I-28, 4-(2-acryloyl-2,6-diazaspiro[3.4]octan-6-yl)-6-(5-methyl-1H-indazol-4-yl)-2-(4-methyl-3-oxopiperazin-1-yl)pyrimidine-5-carbonitrile] | +++ (+++ indicates binding activity greater than 85%)
C=CC(=O)N1CC2(CCN(c3nc(OC[C@@H]4CCCN4C)nc(-c4c(C)ccc5[nH]cnc45)c3C#N)C2)C1 [Compound I-29, 4-(2-acryloyl-2,6-diazaspiro[3.4]octan-6-yl)-6-(5-methyl-1H-benzo[d]imidazol-4-yl)-2-(((S)-1-methylpyrrolidin-2-yl)methoxy)pyrimidine-5-carbonitrile] | + (+ indicates binding activity greater than 0% and up to 50%)
C=CC(=O)N1CC2(CCN(c3nc(N4CCN(C)CC4)nc(-c4c(C)ccc5[nH]ncc45)c3C#N)C2)C1 [Compound I-30, 4-(2-acryloyl-2,6-diazaspiro[3.4]octan-6-yl)-6-(5-methyl-1H-indazol-4-yl)-2-(4-methylpiperazin-1-yl)pyrimidine-5-carbonitrile] | +++ (+++ indicates binding activity greater than 85%)
